Reference: PMC4102788, “Linking off-target kinase pharmacology to the differential cellular effects observed among PARP inhibitors” (Oncotarget, 2014)
pIC50: −log10 of the molar value.

What was measured:
human PIM2 kinase = target: T1, human PIM2 kinase (Homo sapiens, UniProt Q9P1W9); experiment: Human Pim2 kinase in vitro inhibition assay (Cerep, LANCE/FRET); format: biochemical
T1 construct: purchased Cerep (CRO that ran the assay) 2920 (745-P2); host or cells: insect cells
From the text: (§1) Rucaparib, veliparib and olaparib were purchased from Selleckchem. Kinase in vitro assays were perfomed at Cerep (www.cerep.fr) by measuring the phosphorylation of appropriate peptide substrates by human recombinant enzymes and using FRET as a detection method (a detailed description of each kinase assay is available in online supplementary data).
Human Pim1 and Pim2 kinase in vitro inhibition assays
All details for the Pim1 and Pim2 in vitro assays can be consulted in the Cerep […]
http://www.cerep.fr/cerep/users/pages/catalog/Affiche_CondExp_Test.asp?test=2919, http://www.cerep.fr/cerep/users/pages/catalog/Affiche_CondExp_Test.asp?test=2920.
Evaluation of the effects of compounds on the activity of the human Pim1 and Pim2 kinases were quantified by measuring the phosphorylation of the substrate Ulight- […]
([…]) and ATP (30 µM for Pim1 and 3 µM for Pim2), and the mixture is incubated for 60 min at room temperature. […] After 60 more min, the fluorescence transfer is measured at λex=337 nm, λem=620 nm and λem=665 nm using a microplate reader (Envision, Perkin Elmer).
The enzyme activity is determined by dividing the signal measured at λem=665 nm by that measured at λem=620 nm (ratio). The results are expressed as a percent inhibition of the control enzyme activity. […]

human CDK9 kinase = target: T2, human CDK9 kinase (Homo sapiens, UniProt P50750); experiment: Human CDK9 kinase in vitro inhibition assay (Cerep, LANCE); format: biochemical; conditions: human recombinant enzyme, 10 µM ATP
T2 construct: purchased Cerep (CRO that ran the assay) 2912 (781-cdk9); host or cells: Sf9 cells
T2 sequence (P50750 whole entry): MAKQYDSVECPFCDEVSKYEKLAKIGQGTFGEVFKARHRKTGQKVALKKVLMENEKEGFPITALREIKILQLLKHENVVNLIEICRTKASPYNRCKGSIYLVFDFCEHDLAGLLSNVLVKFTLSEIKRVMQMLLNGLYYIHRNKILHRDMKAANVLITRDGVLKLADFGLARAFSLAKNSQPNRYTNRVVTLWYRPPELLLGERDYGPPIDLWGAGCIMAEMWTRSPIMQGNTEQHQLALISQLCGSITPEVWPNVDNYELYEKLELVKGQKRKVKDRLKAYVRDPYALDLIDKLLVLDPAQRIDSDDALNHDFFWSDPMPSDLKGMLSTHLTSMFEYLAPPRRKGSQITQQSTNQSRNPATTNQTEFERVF
T2 sequence (O60563 whole entry partner): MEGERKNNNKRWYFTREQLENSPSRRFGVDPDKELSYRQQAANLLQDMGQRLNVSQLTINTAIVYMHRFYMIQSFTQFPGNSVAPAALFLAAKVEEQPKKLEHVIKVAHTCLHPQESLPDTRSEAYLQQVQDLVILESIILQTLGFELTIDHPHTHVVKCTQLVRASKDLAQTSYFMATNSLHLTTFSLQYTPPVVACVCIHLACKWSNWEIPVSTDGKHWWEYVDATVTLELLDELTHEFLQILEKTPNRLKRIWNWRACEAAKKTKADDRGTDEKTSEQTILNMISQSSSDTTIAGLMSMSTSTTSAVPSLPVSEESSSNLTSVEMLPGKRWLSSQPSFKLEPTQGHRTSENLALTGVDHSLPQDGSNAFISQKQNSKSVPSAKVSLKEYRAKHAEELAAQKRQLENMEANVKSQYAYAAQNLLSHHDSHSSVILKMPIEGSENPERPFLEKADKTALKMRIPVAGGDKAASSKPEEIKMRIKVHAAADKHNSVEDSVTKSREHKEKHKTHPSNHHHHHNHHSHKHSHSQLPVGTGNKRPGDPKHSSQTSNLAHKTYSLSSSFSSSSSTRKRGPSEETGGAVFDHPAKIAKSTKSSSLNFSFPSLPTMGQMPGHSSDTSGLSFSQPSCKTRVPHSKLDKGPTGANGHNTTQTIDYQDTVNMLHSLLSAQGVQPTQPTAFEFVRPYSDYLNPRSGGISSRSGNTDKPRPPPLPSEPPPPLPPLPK
From the text: as §1
Human CDK9 kinase in vitro inhibition assay
All details for the CDK9 in vitro assay can be consulted in the Cerep Catalogue available online under references 2912 (781-cdk9): http://www.cerep.fr/cerep/users/pages/catalog/Affiche_CondExp_Test.asp?test=2912 Evaluation of the effects of compounds on the activity of the human CDK9 quantified by measuring the phosphorylation of the substrate Ulight- […]
mixture is incubated for 90 min at room temperature. […] After 60 more min, the fluorescence transfer is measured at λex=337 nm, λem=620 nm and λem=665 nm using a microplate reader (Envision, Perkin Elmer). The enzyme activity is determined by dividing the signal measured at λem=665 nm by that measured at λem=620 nm (ratio). The results are expressed as a percent inhibition of the control enzyme activity. The standard inhibitory reference compound is staurosporine, which is tested in each experiment at several concentrations to obtain an inhibition curve from which its IC50 value is calculated. […]

T1 sequence (Q9P1W9 whole entry): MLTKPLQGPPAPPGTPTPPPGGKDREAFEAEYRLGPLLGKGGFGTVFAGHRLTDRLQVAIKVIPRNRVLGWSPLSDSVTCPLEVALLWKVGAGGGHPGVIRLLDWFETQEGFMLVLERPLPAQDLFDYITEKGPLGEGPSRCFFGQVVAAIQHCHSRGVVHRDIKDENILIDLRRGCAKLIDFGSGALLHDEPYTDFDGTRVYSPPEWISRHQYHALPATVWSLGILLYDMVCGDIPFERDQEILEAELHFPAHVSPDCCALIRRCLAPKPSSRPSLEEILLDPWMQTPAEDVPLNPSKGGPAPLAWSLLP

pIC50 (human PIM2 kinase): 5.11
pIC50 (human CDK9 kinase): 5.57
SMILES: CNCc1ccc(-c2[nH]c3cc(F)cc4c3c2CCNC4=O)cc1 [rucaparib]
